According to PubChem BioAssay AID2060902 (Molecular Pharmacology Branch, DTP, NCI, 2025):

System: 485368-065-R3-J5-PDC spheroids with HUVEC/MSC, viability
Experiment: Anticancer human tumor 485368-065-R3-J5-PDC patient-derived pancreatic carcinoma cell line growth inhibition [RAS]
Details: for IC50: curve of first compound; for viability, T/C: stronger effect = lower value; active = viability on the fitted dose curve at most 10% of control; inactive = the rest
How it was run: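 Multi-cell-type spheroids: tumor cells plus HUVEC endothelial cells and mesenchymal stem cells. RAS-pathway inhibitors were combined with targeted agents, each dosed in half-log steps down from clinical Cmax, or from 10 microM when Cmax was unknown.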
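Note: spheroids exposed to agents for seven days before readout.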

CC(Nc1ccc2c(c1)OCCn1cc(N3C(=O)OCC3C(F)F)nc1-2)C(N)=O (centres undefined) + CCn1c(-c2cccnc2C(C)OC)c2c3cc(ccc31)N1CCOC(CC(NC(=O)C(C(C)C)N(C)C(=O)C3(F)CCN(C(=O)C#CC(C)(C)N(C)C)CC3)C(=O)N3CCCC(N3)C(=O)OCC(C)(C)C2)C1
> 10000 nM: IC50 (second compound 0.000949 µM) | IC50 (second compound 0.003 µM) | IC50 (second compound 0.00949 µM) | IC50 (second compound 0.03 µM) | IC50 (second compound 0.0949 µM) | IC50 (second compound 0.3 µM)
inactive: viability, T/C (second compound 0.000949 µM, first compound 0.0316 µM) 106% | viability, T/C (second compound 0.000949 µM, first compound 0.1 µM) 93.9% | viability, T/C (second compound 0.000949 µM, first compound 0.316 µM) 94.2% | viability, T/C (second compound 0.000949 µM, first compound 1 µM) 72.2% | viability, T/C (second compound 0.000949 µM, first compound 3.16 µM) 70.4% | viability, T/C (second compound 0.000949 µM, first compound 10 µM) 65.8% | viability, T/C (second compound 0.003 µM, first compound 0.0316 µM) 90.8% | viability, T/C (second compound 0.003 µM, first compound 0.1 µM) 93% | viability, T/C (second compound 0.003 µM, first compound 0.316 µM) 93.7% | viability, T/C (second compound 0.003 µM, first compound 1 µM) 86.2% | viability, T/C (second compound 0.003 µM, first compound 3.16 µM) 98.9% | viability, T/C (second compound 0.003 µM, first compound 10 µM) 56.8% | viability, T/C (second compound 0.00949 µM, first compound 0.0316 µM) 94.4% | viability, T/C (second compound 0.00949 µM, first compound 0.1 µM) 101% | viability, T/C (second compound 0.00949 µM, first compound 0.316 µM) 84.9% | viability, T/C (second compound 0.00949 µM, first compound 1 µM) 96% | viability, T/C (second compound 0.00949 µM, first compound 3.16 µM) 85.9% | viability, T/C (second compound 0.00949 µM, first compound 10 µM) 55.7% | viability, T/C (second compound 0.03 µM, first compound 0.0316 µM) 96.6% | viability, T/C (second compound 0.03 µM, first compound 0.1 µM) 91% | viability, T/C (second compound 0.03 µM, first compound 0.316 µM) 99% | viability, T/C (second compound 0.03 µM, first compound 1 µM) 82.5% | viability, T/C (second compound 0.03 µM, first compound 3.16 µM) 95.5% | viability, T/C (second compound 0.03 µM, first compound 10 µM) 65% | viability, T/C (second compound 0.0949 µM, first compound 0.0316 µM) 103% | viability, T/C (second compound 0.0949 µM, first compound 0.1 µM) 94.1% | viability, T/C (second compound 0.0949 µM, first compound 0.316 µM) 78.6% | viability, T/C (second compound 0.0949 µM, first compound 1 µM) 93.7% | viability, T/C (second compound 0.0949 µM, first compound 3.16 µM) 77.9% | viability, T/C (second compound 0.0949 µM, first compound 10 µM) 62.1% | viability, T/C (second compound 0.3 µM, first compound 0.0316 µM) 100% | viability, T/C (second compound 0.3 µM, first compound 0.1 µM) 101% | viability, T/C (second compound 0.3 µM, first compound 0.316 µM) 86.6% | viability, T/C (second compound 0.3 µM, first compound 1 µM) 83.7% | viability, T/C (second compound 0.3 µM, first compound 3.16 µM) 84% | viability, T/C (second compound 0.3 µM, first compound 10 µM) 71.8%

CCN1CCN(Cc2ccc(Nc3ncc(F)c(-c4cc(F)c5nc(C)n(C(C)C)c5c4)n3)nc2)CC1 + C#Cc1c(F)ccc2cc(O)cc(-c3ncc4c(N5CC6CCC(C5)N6)nc(OCC56CCCN5CC(F)C6)nc4c3F)c12
< 3.16 nM: IC50 (second compound 10 µM)
435 nM: IC50 (second compound 0.316 µM)
313 nM: IC50 (second compound 0.1 µM)
47.1 nM: IC50 (second compound 3.16 µM)
179 nM: IC50 (second compound 1 µM)
457 nM: IC50 (second compound 0.0316 µM)
inactive: viability, T/C (second compound 0.0316 µM, first compound 0.00316 µM) 101% | viability, T/C (second compound 0.0316 µM, first compound 0.01 µM) 87% | viability, T/C (second compound 0.0316 µM, first compound 0.0316 µM) 82.8% | viability, T/C (second compound 0.0316 µM, first compound 0.1 µM) 72.5% | viability, T/C (second compound 0.0316 µM, first compound 0.316 µM) 50.9% | viability, T/C (second compound 0.0316 µM, first compound 1 µM) 41.4% | viability, T/C (second compound 0.1 µM, first compound 0.00316 µM) 98.2% | viability, T/C (second compound 0.1 µM, first compound 0.01 µM) 96.7% | viability, T/C (second compound 0.1 µM, first compound 0.0316 µM) 76.1% | viability, T/C (second compound 0.1 µM, first compound 0.1 µM) 65.9% | viability, T/C (second compound 0.1 µM, first compound 0.316 µM) 50.1% | viability, T/C (second compound 0.1 µM, first compound 1 µM) 39.8% | viability, T/C (second compound 0.316 µM, first compound 0.00316 µM) 94.4% | viability, T/C (second compound 0.316 µM, first compound 0.01 µM) 85.9% | viability, T/C (second compound 0.316 µM, first compound 0.0316 µM) 76.2% | viability, T/C (second compound 0.316 µM, first compound 0.1 µM) 72.1% | viability, T/C (second compound 0.316 µM, first compound 0.316 µM) 50.4% | viability, T/C (second compound 0.316 µM, first compound 1 µM) 40.6% | viability, T/C (second compound 1 µM, first compound 0.00316 µM) 78.5% | viability, T/C (second compound 1 µM, first compound 0.01 µM) 83.8% | viability, T/C (second compound 1 µM, first compound 0.0316 µM) 75.1% | viability, T/C (second compound 1 µM, first compound 0.1 µM) 59.4% | viability, T/C (second compound 1 µM, first compound 0.316 µM) 40.1% | viability, T/C (second compound 1 µM, first compound 1 µM) 40% | viability, T/C (second compound 3.16 µM, first compound 0.00316 µM) 69.4% | viability, T/C (second compound 3.16 µM, first compound 0.01 µM) 63.9% | viability, T/C (second compound 3.16 µM, first compound 0.0316 µM) 49.7% | viability, T/C (second compound 3.16 µM, first compound 0.1 µM) 47.5% | viability, T/C (second compound 3.16 µM, first compound 0.316 µM) 36.5% | viability, T/C (second compound 3.16 µM, first compound 1 µM) 33.8% | viability, T/C (second compound 10 µM, first compound 0.00316 µM) 48.8% | viability, T/C (second compound 10 µM, first compound 0.01 µM) 37.2% | viability, T/C (second compound 10 µM, first compound 0.0316 µM) 31.4% | viability, T/C (second compound 10 µM, first compound 0.1 µM) 30.3% | viability, T/C (second compound 10 µM, first compound 0.316 µM) 29.9% | viability, T/C (second compound 10 µM, first compound 1 µM) 28.3%
